# Results: patent US5156955A, “Nucleoside oxidase and assay method utilizing same” (priority 1988, dated 1992)
# Read-outs that look alike come from different tables or passages of the source.
# What was measured:
# Assay type in all cases: biochemical, Pseudomonas maltophilia LB-86
# [1] = test system: nucleoside oxidase YT-1; settings: for Effect of inhibitor (enzyme inhibited): statement in words
# Description: A solution of the present enzyme (0.02 U) was caused to act on inosine at pH 6.0 and 25° C. for 10 minutes in the presence of various inhibitors, and the enzymatic activity was thereafter measured.
# [2] = test system: nucleoside oxidase YT-1; assay: Influence of metal ions on the activity; settings: enzyme 0.02 U on inosine, pH 6.0, 25° C., 10 minutes
# Description: A solution of the enzyme (0.02 U) was caused to act on inosine at pH 6.0 and 25° C. for 10 minutes in the presence of various metal ions, and the activity of the enzyme was thereafter measured to check the influence of the metal ions on the activity.
# [3] = test system: nucleoside oxidase YT-1; assay: Specificity test on laccase substrate (laccase-like activity in presence of inosine); settings: 1 mM laccase substrate, 7 mM inosine, one unit enzyme, 5 minutes
# Description: The present enzyme was tested for the substrate specificity of its laccase-like activity in the presence of 7 mM inosine in the following manner. One unit of the present enzyme was added to a specimen containing 7 mM of inosine and 1 mM of the laccase substrate shown in Table 5, and the mixture was allowed to stand for 5 minutes. The absorption spectrum of the specimen was obtained before and after the addition of the enzyme.
# [4] = test system: nucleoside oxidase YT-1; assay: Enzymatic activity test I: oxidation reaction products and stoichiometry; settings: for change on reaction with the enzyme sample (HPLC): peak separated off by HPLC and reacted with enzyme
# Description: During a reaction period of 0 to 800 minutes, the reaction muxture was partly collected at suitable time intervals and analyzed by high performance liquid chromatography (HPLC) with a column of Fine SIL C18 (product of Japan Spectroscopic Co., Ltd.) using as a solvent 50 mM phosphate buffer (pH 3.0)/methanol=95/5 at a flow rate of 1.5 ml/min. Absorption was detected at 260 nm.
# The amount of oxygen consumption was determined by an oxygen electrode, the amount of P-2 produced from the peak area of HPLC, and the amount of hydrogen peroxide by the phenol-4-aminoantipyrine peroxidase method and the ferrithiocyanide method (Ronald Thurman et al., Eur. J. Biochem., 25, 420-430 (1972)).
# [5] = test system: nucleoside oxidase YT-1; assay: Substrate specificity test (nucleoside oxidase activity, oxygen consumption); settings: relative to activity on inosine taken as 100
# Description: The consumption of 1 μM of oxygen per minute is taken as 1 unit (U).
# [6] = inhibitor 1 mM, enzyme 0.02 U on inosine, pH 6.0, 25° C., 10 minutes
# [7] = inhibitor 10 mM, enzyme 0.02 U on inosine, pH 6.0, 25° C., 10 minutes
compound,measurement,setting,value
O=C(O)CI [Iodoacetic acid],Relative activity,"[1]; nucleoside oxidase yt-1, pH 6, 10 min, 1000 µM",100%
O=S(=O)([O-])[O-].[Mg+2] [MgSO4],Relative activity,[2]; metal salt 0.1 mM,102%
O=S(=O)([O-])[O-].[Mn+2] [MnSO4],Relative activity,[2]; metal salt 0.1 mM,103%
O=C1CCC(=O)N1Br [N-Bromosuccinimide],Relative activity,[1]; [6],0%
same,Effect of inhibitor (enzyme inhibited),[1],inhibited
Cc1cc(O)cc(O)c1 [Orcinol],Change in absorption spectrum due to reaction,[3],New peak at 340 nm
"O=C[C@H]1O[C@@H](n2cnc3c(=O)[nH]cnc32)[C@H](O)[C@@H]1O [P-1, inosine-5'-aldehyde]",oxygen consumption,"[4]; 100 nanomoles of P-1, one U enzyme, 1 ml 100 mM phosphate buffer",48 nmol
same,hydrogen peroxide formed,[4]; 100 nanomoles of P-1 as substrate,No hydrogen peroxide was detected
same,P-2 produced,"[4]; from 100 nanomoles of P-1, one U enzyme",97 nmol
same,change on reaction with the enzyme sample (HPLC),[4],changed into P-2 with consumption of oxygen
"O=C(O)[C@H]1O[C@@H](n2cnc3c(=O)[nH]cnc32)[C@H](O)[C@@H]1O [P-2, inosine-5'-carboxylic acid]",change on reaction with the enzyme sample (HPLC),[4],exhibited no change
CC(=O)[O-].CC(=O)[O-].[Pb+2] [Pb(CH3 COO)2],Relative activity,[1]; [6],81.3%
O=S(=O)(F)Cc1ccccc1 [Phenylmethylsulfonyl fluoride],Relative activity,[1]; [6],95.3%
N#CO [Potassium cyanate],Relative activity,[1]; [6],34.8%
same,Relative activity,[1]; [7],0%
same,Effect of inhibitor (enzyme inhibited),[1],inhibited
same,Effect of inhibitor (enzyme inhibited),[1]; listed as potassium cianate,Inhibited
Oc1cccc(O)c1O [Pyrogallol],Change in absorption spectrum due to reaction,[3],New peak at 370 nm
CCN(CC)CCCC(C)Nc1c2ccc(Cl)cc2nc2ccc(OC)cc12 (stereo not drawn) [Quinacrine],Relative activity,[1]; [6],95.6%
"CCN(CC)C(=S)S [Sodium N,N'-Diethylditiocarbamate, Sodium N,N'-Diethylditio-carbamate]",Relative activity,[1]; [6],271%
[N-]=[N+]=[N-] [Sodium azide],Relative activity,[1]; [6],81.5%
same,Relative activity,[1]; [7],45.6%
same,Effect of inhibitor (enzyme inhibited),[1],inhibited
Cc1cn([C@H]2C[C@H](O)[C@@H](CO)O2)c(=O)[nH]c1=O [Thymidine],Relative activity,[5]; substrate 10 mM,55.8%
Cc1c[nH]c(=O)[nH]c1=O [Thymine],Relative activity,[5]; substrate 20 mM,0%
O=c1cc[nH]c(=O)[nH]1 [Uracil],Relative activity,[5]; substrate 20 mM,0%
O=c1ccn([C@@H]2O[C@H](CO)[C@@H](O)[C@H]2O)c(=O)[nH]1 [Uridine],Relative activity,[5]; substrate 10 mM,92.8%
O=c1[nH]c(=O)c2[nH]cnc2[nH]1 [Xanthine],Relative activity,[5]; substrate 0.4 mM,0%
O=c1[nH]c(=O)c2ncn([C@@H]3O[C@H](CO)[C@@H](O)[C@H]3O)c2[nH]1 [Xanthosine],Relative activity,[5]; substrate 10 mM,125%
O=S(=O)([O-])[O-].[Zn+2] [ZnSO4],Relative activity,[2]; metal salt 0.1 mM,106%
same,Relative activity,[2]; metal salt 1.0 mM,98.9%
c1cnc2c(c1)ccc1cccnc12 [o-Phenanthroline],Relative activity,[1]; [6],94.7%
Nc1ccc(O)cc1 [p-Aminophenol],Change in absorption spectrum due to reaction,[3],New peak at 360 nm
Nc1ccc(N)cc1 [p-Phenylendiamine],Change in absorption spectrum due to reaction,[3],New peak at 490 nm
O=C1C=CC(=O)C=C1 [p-Quinone],Change in absorption spectrum due to reaction,[3],No change
"c1ccc(-c2ccccn2)nc1 [α,α'-Dipyridyl]",Relative activity,[1]; [6],96.7%
(NH4)6 Mo7 O24,Relative activity,[2]; metal salt 0.1 mM,106%
same,Relative activity,[2]; metal salt 1.0 mM,102%
Mercury p-chorobenzoate,Relative activity,[1]; [6],98.9%
